Measured values published in PubChem BioAssay (NCI).
Values joined by “and” are separate entries in the source; they are usually repeats but may differ in a detail not shown here. Equal values may be shown once.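 Step 1: Grow cells in 96-well plates. Step 2: Expose to compound for 48 hours at 5 concentrations. Step 3: Interpolate endpoints linearly; if unreached, use highest concentration. GI50 = concentration required for 50% inhibition of growth. TGI denotes the concentration required for complete inhibition of growth.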

Key:
Assay in all cases: NCI tumour cell line growth inhibition, 48 h
[1] = system: UO-31 renal
[2] = system: NCI/ADR-RES ovarian
[3] = system: SK-MEL-5 melanoma
[4] = system: SR leukemia
[5] = system: COLO 205 colon
[6] = system: RXF 393 renal
[7] = system: A498 renal
[8] = system: CAKI-1 renal
[9] = system: T-47D breast
[10] = system: MOLT-4 leukemia
[11] = system: TK-10 renal
[12] = system: DU-145 prostate

`CCCCCCCCCCCCC(O)[C@H]1CC[C@H](C(O)CCCCCC(=O)CCCCC2CC(C(C)=O)C(=O)O2)O1` (some centres not stated) gave a TGI [1] of 26.9 µM, a GI50 [2] of 1.87 µM and a TGI [2] of 40.4 µM. The GI50 [3] was 1.11 µM, the TGI [3] was 4.97 µM and 20.4 µM and the GI50 [4] was 1.76 µM. For the same compound, the TGI [4] was greater than 38.1 µM, the GI50 [5] was 2.16 µM and the TGI [5] was greater than 57.8 µM. It also gave a TGI [6] of 22.2 µM, a GI50 [7] of 2.62 µM and a TGI [7] of 36.6 µM. The TGI [8] was 50.3 µM, the GI50 [9] was 3.84 µM and the TGI [9] was greater than 41.5 µM. The GI50 [10] was 2.81 µM and 2.14 µM, the TGI [10] was 23.4 µM and the TGI [11] was greater than 68.6 µM. For the same compound, the TGI [12] was greater than 100 µM.

`O=C1C(c2c(O)[nH]c3ccc(Br)cc23)=Nc2ccccc21` was tested, and the TGI [1] was 12.3 µM, the TGI [2] was greater than 100 µM and the TGI [3] was 18.6 µM. For the same compound, the TGI [4] was greater than 100 µM, the TGI [5] was 31.4 µM and the TGI [6] was 6.47 µM. For the same compound, the TGI [7] was 14.1 µM, the TGI [8] was 38.8 µM and the TGI [9] was 64.2 µM. For the same compound, the TGI [10] was greater than 100 µM, the TGI [11] was 27.8 µM and the TGI [12] was 27.2 µM.

Compound `CC(=O)OCC1OC(n2c(-c3ccc(C)cc3)cc(-c3ccccc3)c(C#N)c2=S)C(OC(C)=O)C(OC(C)=O)C1OC(C)=O` (configuration not stated) has a TGI [1] greater than 100 µM, a TGI [2] greater than 100 µM and a TGI [3] greater than 100 µM. It also gave a TGI [4] greater than 100 µM, a TGI [5] greater than 100 µM and a TGI [6] greater than 100 µM. The TGI [7] was greater than 100 µM, the TGI [8] was greater than 100 µM and the TGI [9] was greater than 100 µM. For the same compound, the TGI [10] was greater than 100 µM, the TGI [11] was greater than 100 µM and the TGI [12] was greater than 100 µM.

In the case of `O=[N+]([O-])c1ccc(N/N=C/c2ccc(OCCCCCCCCCCCO)cc2)c([N+](=O)[O-])c1`, the TGI [1] is reported as 36.1 µM, the TGI [2] is reported as 9.51 µM and the TGI [3] is reported as 4.66 µM. The TGI [4] was 8.94 µM, the TGI [5] was 6.24 µM and the TGI [6] was 4.6 µM. For the same compound, the TGI [7] was greater than 100 µM, the TGI [8] was 8.94 µM and the TGI [9] was greater than 100 µM. It also gave a TGI [10] greater than 100 µM, a TGI [11] of 33.7 µM and a TGI [12] greater than 95.9 µM.

`C=CCc1cccc2cc(C(=O)Nc3ccccn3)c(=N)oc12` was tested, and the TGI [2] was greater than 100 µM, the TGI [3] was greater than 100 µM and the TGI [4] was greater than 100 µM. It also gave a TGI [5] greater than 100 µM, a TGI [6] greater than 100 µM and a TGI [7] greater than 100 µM. The TGI [8] was greater than 100 µM, the TGI [9] was greater than 100 µM and the TGI [10] was greater than 100 µM. The TGI [12] was greater than 100 µM.

`CCOC(=O)c1ccc(N=c2sc3ccccc3nc2Nc2ccc(C(=O)OCC)cc2)cc1` gave a TGI [1] greater than 100 µM, a TGI [2] greater than 100 µM and a TGI [3] greater than 100 µM. For the same compound, the TGI [4] was greater than 100 µM, the TGI [5] was greater than 100 µM and the TGI [6] was greater than 100 µM. The TGI [7] was greater than 100 µM, the TGI [8] was greater than 100 µM and the TGI [9] was greater than 100 µM. The TGI [10] was greater than 100 µM, the TGI [11] was greater than 100 µM and the TGI [12] was greater than 100 µM.

Work on `Cc1cn(CC2=NCC(C)N2)c(=O)[nH]c1=O` (configuration not stated) yielded a TGI [1] greater than 100 µM, a TGI [2] greater than 100 µM and a TGI [3] greater than 100 µM. The TGI [4] was greater than 100 µM, the TGI [5] was greater than 100 µM and the TGI [6] was greater than 100 µM. It also gave a TGI [7] greater than 100 µM, a TGI [9] greater than 100 µM and a TGI [10] greater than 100 µM. It also gave a TGI [11] greater than 100 µM and a TGI [12] greater than 100 µM.

`COc1ccc2nc(-c3ccc(O)cc3)sc2c1` showed a TGI [1] of 30.1 µM, a TGI [2] of 72.6 µM and a TGI [3] of 38 µM. For the same compound, the TGI [4] was 22.5 µM, the TGI [5] was 44.6 µM and the TGI [6] was 40.9 µM. It also gave a TGI [7] of 85.7 µM, a TGI [8] of 57.5 µM and a TGI [9] of 36.7 µM. It also gave a TGI [10] of 78.3 µM, a TGI [11] of 70.2 µM and a TGI [12] greater than 100 µM.

In the case of `CCCCn1c2c(n(CCCC)c1=S)-c1c(n(CCCC)c(=S)n1CCCC)SSc1c(n(CCCC)c(=S)n1CCCC)-c1c(n(CCCC)c(=S)n1CCCC)SSc1c(n(CCCC)c(=S)n1CCCC)-c1c(n(CCCC)c(=S)n1CCCC)SS2`, the TGI [1] is reported as 16.5 µM, the TGI [2] is reported as greater than 50 µM and the TGI [3] is reported as greater than 36.6 µM. The TGI [4] was greater than 50 µM, the TGI [5] was 14.7 µM and the TGI [6] was greater than 50 µM. The TGI [7] was greater than 50 µM, the TGI [8] was greater than 40.2 µM and the TGI [9] was 9.51 µM. It also gave a TGI [10] greater than 50 µM, a TGI [11] greater than 50 µM and a TGI [12] greater than 50 µM.

With `O=C1CC(c2ccccc2)n2cccc21` (configuration not stated) the TGI [1] was greater than 100 µM, the TGI [2] was greater than 100 µM and the TGI [3] was greater than 100 µM. For the same compound, the TGI [4] was greater than 100 µM, the TGI [5] was greater than 100 µM and the TGI [6] was greater than 100 µM. The TGI [7] was greater than 100 µM, the TGI [8] was greater than 100 µM and the TGI [9] was greater than 100 µM. For the same compound, the TGI [11] was greater than 100 µM and the TGI [12] was greater than 100 µM.

Compound `C/C(=N\NC(=S)NCCCNC(=S)N/N=C(\C)c1ccccn1)c1ccccn1` has a TGI [1] greater than 54.1 µM, a TGI [2] of 8.19 µM and a TGI [3] greater than 22 µM. It also gave a TGI [4] of 6.19 µM, a TGI [5] greater than 34.9 µM and a TGI [6] of 14.7 µM. It also gave a TGI [7] of 26.2 µM, a TGI [8] greater than 49.9 µM and a TGI [9] greater than 24.1 µM. For the same compound, the TGI [10] was greater than 100 µM, the TGI [11] was 24.2 µM and the TGI [12] was 33.9 µM.

`CO/N=C(\C)c1cccc(Nc2c3ccccc3nc3occc23)c1` was tested, and the TGI [1] was 31.5 µM, the TGI [2] was 15.6 µM and the TGI [3] was 19.1 µM. For the same compound, the TGI [4] was 16.4 µM, the TGI [5] was 17.6 µM and the TGI [6] was 5.87 µM. For the same compound, the TGI [7] was 38.9 µM, the TGI [8] was 19.2 µM and the TGI [9] was 28.8 µM. The TGI [10] was 37.9 µM, the TGI [11] was 48.8 µM and the TGI [12] was 44.4 µM.

Compound `CO/N=C(\C)CCC#Cc1ccccc1C(=O)OC` has a TGI [1] greater than 10 µM, a TGI [2] greater than 10 µM and a TGI [3] greater than 10 µM. The TGI [4] was greater than 10 µM, the TGI [5] was greater than 10 µM and the TGI [6] was greater than 10 µM. It also gave a TGI [7] greater than 10 µM, a TGI [8] greater than 10 µM and a TGI [9] greater than 10 µM. The TGI [10] was greater than 10 µM, the TGI [11] was greater than 10 µM and the TGI [12] was greater than 10 µM.

In the case of `Cc1ccnc(NC(NC(=O)c2ccccc2)(C(F)(F)F)C(F)(F)F)c1`, the TGI [1] is reported as greater than 100 µM, the TGI [2] is reported as greater than 100 µM and the TGI [3] is reported as greater than 100 µM. The TGI [4] was greater than 100 µM, the TGI [5] was greater than 100 µM and the TGI [6] was greater than 100 µM. For the same compound, the TGI [8] was greater than 100 µM, the TGI [9] was greater than 100 µM and the TGI [10] was greater than 100 µM. It also gave a TGI [11] greater than 100 µM and a TGI [12] greater than 100 µM.

`N#Cc1cnc(N)nc1NCC1(CO)CC(CCc2ccccc2)C1` (configuration not stated) gave a TGI [1] greater than 100 µM, a TGI [2] greater than 100 µM and a TGI [3] greater than 100 µM. The TGI [4] was greater than 100 µM, the TGI [5] was greater than 100 µM and the TGI [6] was greater than 100 µM. The TGI [7] was greater than 100 µM, the TGI [8] was greater than 100 µM and the TGI [9] was greater than 20.5 µM. It also gave a TGI [10] greater than 100 µM, a TGI [11] greater than 100 µM and a TGI [12] greater than 100 µM.

`O=C(NCCCCCCNC(=O)c1cc(-c2ccccc2)nc2ccccc12)c1cc(-c2ccccc2)nc2ccccc12` gave a TGI [1] greater than 100 µM, a TGI [2] greater than 100 µM and a TGI [3] greater than 100 µM. The TGI [4] was greater than 100 µM, the TGI [5] was greater than 100 µM and the TGI [6] was greater than 100 µM. It also gave a TGI [7] greater than 100 µM, a TGI [8] greater than 100 µM and a TGI [9] greater than 100 µM. The TGI [10] was greater than 100 µM, the TGI [11] was greater than 100 µM and the TGI [12] was greater than 100 µM.

Work on `COC(=O)C(CCSC)NC(=O)Cc1ccc(C(=O)c2ccccc2)cc1` (configuration not stated) yielded a TGI [1] greater than 100 µM, a TGI [2] of 91.5 µM and a TGI [3] greater than 100 µM. For the same compound, the TGI [4] was greater than 100 µM, the TGI [5] was greater than 100 µM and the TGI [6] was greater than 100 µM. The TGI [7] was greater than 100 µM, the TGI [8] was greater than 100 µM and the TGI [9] was greater than 100 µM. The TGI [10] was greater than 100 µM and the TGI [12] was greater than 100 µM.

For `CCCCCCCCCCNC(=O)CCC(NC(=O)c1ccc(N(C)Cc2cnc3nc(N)nc(N)c3n2)cc1)C(=O)NCCCCCCCCCC` (configuration not stated), the TGI [1] was greater than 100 µM, the TGI [2] was greater than 100 µM and the TGI [3] was 12.6 µM. It also gave a TGI [4] greater than 24.5 µM, a TGI [5] of 15.2 µM and a TGI [6] of 19.3 µM. The TGI [7] was 73.5 µM, the TGI [8] was greater than 100 µM and the TGI [9] was 40.3 µM. The TGI [10] was 30.5 µM, the TGI [11] was greater than 92.7 µM and the TGI [12] was greater than 70.2 µM.
